# Laboratory results taken from patent publication US10927123B2, “Modulators of the beta-3 adrenergic receptor useful for the treatment or prevention of disorders related thereto” (Arena Pharmaceuticals, Inc., priority 2016, dated 2021).
# Molecular target: Beta-3 Adrenergic Receptor (Homo sapiens (Human), UniProt P13945)
# Assay: HTRF cAMP antagonist assay (IC50 determination)
# Format: cell-based
# Conditions: CHO-K1 cells stably expressing recombinant receptor; antagonism of isoproterenol at EC90; cAMP readout
# In short: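 CHO-K1 cells stably expressing receptor, 1500 cells/well, preincubated briefly with 10-point 5-fold compound series (top final typically 10 or 100 μM) in PBS with 1 mM IBMX, then challenged with isoproterenol at EC90 for 1 h at room temperature. cAMP read by HTRF against on-plate standard curve; IC50 from dose-response.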
# Sequence of Beta-3 Adrenergic Receptor (P13945 whole entry, species assumed): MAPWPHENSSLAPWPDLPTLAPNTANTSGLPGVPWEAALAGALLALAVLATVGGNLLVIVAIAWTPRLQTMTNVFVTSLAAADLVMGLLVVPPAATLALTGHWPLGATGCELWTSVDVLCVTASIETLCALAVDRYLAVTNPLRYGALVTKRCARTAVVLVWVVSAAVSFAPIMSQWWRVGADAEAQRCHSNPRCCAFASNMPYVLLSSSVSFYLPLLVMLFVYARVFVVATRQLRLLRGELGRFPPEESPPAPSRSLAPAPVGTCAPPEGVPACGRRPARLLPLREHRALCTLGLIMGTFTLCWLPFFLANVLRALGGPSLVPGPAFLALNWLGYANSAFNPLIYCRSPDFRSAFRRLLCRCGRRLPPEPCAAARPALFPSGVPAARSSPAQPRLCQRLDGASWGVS
row,SMILES,IC50
1,"CCOc1ccc(-c2ccc(CCN)cc2)cc1S(=O)(=O)N1CCC2(CC1)C[C@H](NC[C@H](O)COc1cccc(S(=O)(=O)C3(CO)CC3)c1)CO2 [Compound 214, (S)-1-((S)-8-(4′-(2-aminoethyl)-4-ethoxybiphenyl-3-ylsulfonyl)-1-oxa-8-azaspiro[4.5]decan-3-ylamino)-3-(3-(1-(hydroxymethyl)cyclopropylsulfonyl)phenoxy)propan-2-ol]",36.7 nM
2,"NCc1ccc(-c2cc(S(=O)(=O)N3CCC4(CC3)C[C@H](NC[C@H](O)COc3cccc(S(=O)(=O)C5(CO)CC5)c3)CO4)ccc2F)cc1 [Compound 218, (S)-1-((S)-8-(4′-(aminomethyl)-6-fluorobiphenyl-3-ylsulfonyl)-1-oxa-8-azaspiro[4.5]decan-3-ylamino)-3-(3-(1-(hydroxymethyl)cyclopropylsulfonyl)phenoxy)propan-2-ol]",29.3 nM
3,"NC1(c2ccc(-c3cc(S(=O)(=O)N4CCC5(CC4)C[C@H](NC[C@H](O)COc4cccc(S(=O)(=O)C6(CO)CC6)c4)CO5)ccc3F)cc2)CC1 [Compound 219, (S)-1-((S)-8-(4′-(1-aminocyclopropyl)-6-fluorobiphenyl-3-ylsulfonyl)-1-oxa-8-azaspiro[4.5]decan-3-ylamino)-3-(3-(1-(hydroxymethyl)cyclopropylsulfonyl)phenoxy)propan-2-ol]",21.6 nM
4,"O=S(=O)(c1cnc(Cl)c(Br)c1)N1CCC2(CC1)C[C@@H](NC[C@H](O)COc1cccc(S(=O)(=O)C3(CO)CC3)c1)CO2 [Compound 221, (S)-1-((R)-8-(5-bromo-6-chloropyridin-3-ylsulfonyl)-1-oxa-8-azaspiro[4.5]decan-3-ylamino)-3-(3-(1-(hydroxymethyl)cyclopropylsulfonyl)phenoxy)propan-2-ol]",20.6 nM
5,"CN1CCN(C)c2ncc(S(=O)(=O)N3CCC4(CC3)C[C@@H](NC[C@H](O)COc3cccc(S(=O)(=O)C5(CO)CC5)c3)CO4)cc21 [Compound 222, (S)-1-((R)-8-(1,4-dimethyl-1,2,3,4-tetrahydropyrido[3,2-b]pyrazin-7-ylsulfonyl)-1-oxa-8-azaspiro[4.5]decan-3-ylamino)-3-(3-(1-(hydroxymethyl)cyclopropylsulfonyl)phenoxy)propan-2-ol]",47.6 nM
6,"COc1ccc(S(=O)(=O)N2CCC3(CC2)C[C@H](NC[C@H](O)COc2cccc(S(=O)(=O)C(C)(C)CO)c2)CO3)cc1-c1ccc(CN)cc1 [Compound 223, 2-(3-((S)-3-((S)-8-(4′-(aminomethyl)-6-methoxybiphenyl-3-ylsulfonyl)-1-oxa-8-azaspiro[4.5]decan-3-ylamino)-2-hydroxypropoxy)phenylsulfonyl)-2-methylpropan-1-ol]",83.6 nM
7,"COc1ccc(S(=O)(=O)N2CCC3(CC2)C[C@H](NC[C@H](O)COc2cccc(S(=O)(=O)C4(CO)CC4)c2)CO3)cc1-c1ccc(C2(N)CC2)cc1 [Compound 225, (S)-1-((S)-8-(4′-(1-aminocyclopropyl)-6-methoxybiphenyl-3-ylsulfonyl)-1-oxa-8-azaspiro[4.5]decan-3-ylamino)-3-(3-(1-(hydroxymethyl)cyclopropylsulfonyl)phenoxy)propan-2-ol]",33.1 nM
8,"CCOc1ccc(-c2ccc(CN)cc2)cc1S(=O)(=O)N1CCC2(CC1)C[C@H](NC[C@H](O)COc1cccc(S(=O)(=O)CC)c1)CO2 [Compound 226, (S)-1-((S)-8-(4′-(aminomethyl)-4-ethoxybiphenyl-3-ylsulfonyl)-1-oxa-8-azaspiro[4.5]decan-3-ylamino)-3-(3-(ethylsulfonyl)phenoxy)propan-2-ol]",12.5 nM
9,"COc1ccc(S(=O)(=O)N2CCC3(CC2)C[C@H](NC[C@H](O)COc2cccc(S(=O)(=O)C4CC4)c2)CO3)cc1-c1ccc(CN)cc1 [Compound 227, (S)-1-((S)-8-(4′-(aminomethyl)-6-methoxybiphenyl-3-ylsulfonyl)-1-oxa-8-azaspiro[4.5]decan-3-ylamino)-3-(3-(cyclopropylsulfonyl)phenoxy)propan-2-ol]",17.9 nM
10,"COc1c(-c2ccc(CN)cc2)cccc1S(=O)(=O)N1CCC2(CC1)C[C@H](NC[C@H](O)COc1cccc(S(=O)(=O)C3CC3)c1)CO2 [Compound 228, (S)-1-((S)-8-(4′-(aminomethyl)-2-methoxybiphenyl-3-ylsulfonyl)-1-oxa-8-azaspiro[4.5]decan-3-ylamino)-3-(3-(cyclopropylsulfonyl)phenoxy)propan-2-ol]",29.1 nM
11,"COc1cc(-c2ccc(CN)cc2)cc(S(=O)(=O)N2CCC3(CC2)C[C@H](NC[C@H](O)COc2cccc(S(=O)(=O)C4CC4)c2)CO3)c1 [Compound 229, (S)-1-((S)-8-(4′-(aminomethyl)-5-methoxybiphenyl-3-ylsulfonyl)-1-oxa-8-azaspiro[4.5]decan-3-ylamino)-3-(3-(cyclopropylsulfonyl)phenoxy)propan-2-ol]",11.6 nM
12,"CC(F)S(=O)(=O)c1cccc(OC[C@@H](O)CN[C@H]2COC3(CCN(S(=O)(=O)c4cnc5c(c4)N(C)CCO5)CC3)C2)c1 (stereo partly drawn) [Compound 235, (2S)-1-(3-(1-fluoroethylsulfonyl)phenoxy)-3-((R)-8-(1-methyl-2,3-dihydro-1H-pyrido[2,3-b][1,4]oxazin-7-ylsulfonyl)-1-oxa-8-azaspiro[4.5]decan-3-ylamino)propan-2-ol]",15 nM
13,"Cc1cc(=O)[nH]c2ccc(S(=O)(=O)N3CCC4(CC3)C[C@@H](NC[C@H](O)COc3cccc(S(=O)(=O)C5(CO)CC5)c3)CO4)cc12 [Compound 236, 6-((R)-3-((S)-2-hydroxy-3-(3-(1-(hydroxymethyl)cyclopropylsulfonyl)phenoxy)propylamino)-1-oxa-8-azaspiro[4.5]decan-8-ylsulfonyl)-4-methylquinolin-2(1H)-one]",369 nM

# Results, then the compound that gave them:
row,IC50,SMILES
1,38.4 nM,"COc1ccc(S(=O)(=O)N2CCC3(CC2)C[C@H](NC[C@H](O)COc2cccc(S(=O)(=O)C4(CO)CC4)c2)CO3)cc1-c1ccc(CCN)cc1 [Compound 215, (S)-1-((S)-8-(4′-(2-aminoethyl)-6-methoxybiphenyl-3-ylsulfonyl)-1-oxa-8-azaspiro[4.5]decan-3-ylamino)-3-(3-(1-(hydroxymethyl)cyclopropylsulfonyl)phenoxy)propan-2-ol]"
2,26.4 nM,"NCc1ccc(-c2cc(S(=O)(=O)N3CCC4(CC3)C[C@@H](NC[C@H](O)COc3cccc(S(=O)(=O)C5(CO)CC5)c3)CO4)ccc2F)cc1 [Compound 216, (S)-1-((R)-8-(4′-(aminomethyl)-6-fluorobiphenyl-3-ylsulfonyl)-1-oxa-8-azaspiro[4.5]decan-3-ylamino)-3-(3-(1-(hydroxymethyl)cyclopropylsulfonyl)phenoxy)propan-2-ol]"
3,28.4 nM,"NC1(c2ccc(-c3cc(S(=O)(=O)N4CCC5(CC4)C[C@@H](NC[C@H](O)COc4cccc(S(=O)(=O)C6(CO)CC6)c4)CO5)ccc3F)cc2)CC1 [Compound 217, (S)-1-((R)-8-(4′-(1-aminocyclopropyl)-6-fluorobiphenyl-3-ylsulfonyl)-1-oxa-8-azaspiro[4.5]decan-3-ylamino)-3-(3-(1-(hydroxymethyl)cyclopropylsulfonyl)phenoxy)propan-2-ol]"
4,27.5 nM,"CCOc1ccc(-c2ccc(CN)c(F)c2)cc1S(=O)(=O)N1CCC2(CC1)C[C@H](NC[C@H](O)COc1cccc(S(=O)(=O)C3(CO)CC3)c1)CO2 [Compound 220, (S)-1-((S)-8-(4′-(aminomethyl)-4-ethoxy-3′-fluorobiphenyl-3-ylsulfonyl)-1-oxa-8-azaspiro[4.5]decan-3-ylamino)-3-(3-(1-(hydroxymethyl)cyclopropylsulfonyl)phenoxy)propan-2-ol]"
5,73.2 nM,"COc1ccc(S(=O)(=O)N2CCC3(CC2)C[C@H](NC[C@H](O)COc2cccc(S(=O)(=O)C(C)(C)CO)c2)CO3)cc1-c1ccc(C2(N)CC2)cc1 [Compound 224, 2-(3-((S)-3-((S)-8-(4′-(1-aminocyclopropyl)-6-methoxybiphenyl-3-ylsulfonyl)-1-oxa-8-azaspiro[4.5]decan-3-ylamino)-2-hydroxypropoxy)phenylsulfonyl)-2-methylpropan-1-ol]"
6,15 nM,"CCOc1ccc(-c2ccc(CN)cc2)cc1S(=O)(=O)N1CCC2(CC1)C[C@H](NC[C@H](O)COc1cccc(S(=O)(=O)COC)c1)CO2 [Compound 230, (S)-1-((S)-8-(4′-(aminomethyl)-4-ethoxybiphenyl-3-ylsulfonyl)-1-oxa-8-azaspiro[4.5]decan-3-ylamino)-3-(3-(methoxymethylsulfonyl)phenoxy)propan-2-ol]"
7,19.6 nM,"CCOc1ccc(-c2ccc(CN)cc2)cc1S(=O)(=O)N1CCC2(CC1)C[C@H](NC[C@H](O)COc1cccc(S(C)(=O)=O)c1)CO2 [Compound 231, (S)-1-((S)-8-(4′-(aminomethyl)-4-ethoxybiphenyl-3-ylsulfonyl)-1-oxa-8-azaspiro[4.5]decan-3-ylamino)-3-(3-(methylsulfonyl)phenoxy)propan-2-ol]"
8,16.6 nM,"CCOc1ccc(-c2ccc(CN)cc2)cc1S(=O)(=O)N1CCC2(CC1)C[C@H](NC[C@H](O)COc1cccc(S(=O)(=O)C(C)C)c1)CO2 [Compound 232, (S)-1-((S)-8-(4′-(aminomethyl)-4-ethoxybiphenyl-3-ylsulfonyl)-1-oxa-8-azaspiro[4.5]decan-3-ylamino)-3-(3-(isopropylsulfonyl)phenoxy)propan-2-ol]"
9,9.72 nM,"CC(F)S(=O)(=O)c1cccc(OC[C@@H](O)CN[C@H]2COC3(CCN(S(=O)(=O)c4cnc5ccccc5c4)CC3)C2)c1 (stereo partly drawn) [Compound 233, (2S)-1-(3-(1-fluoroethylsulfonyl)phenoxy)-3-((R)-8-(quinolin-3-ylsulfonyl)-1-oxa-8-azaspiro[4.5]decan-3-ylamino)propan-2-ol]"
10,10.2 nM,"CC(F)S(=O)(=O)c1cccc(OC[C@@H](O)CN[C@H]2COC3(CCN(S(=O)(=O)c4ccc5ncccc5c4)CC3)C2)c1 (stereo partly drawn) [Compound 234, (2S)-1-(3-(1-fluoroethylsulfonyl)phenoxy)-3-((R)-8-(quinolin-6-ylsulfonyl)-1-oxa-8-azaspiro[4.5]decan-3-ylamino)propan-2-ol]"
